Assay results as given in publication PMC6615598, “Novel antibiotics effective against gram-positive and -negative multi-resistant bacteria with limited resistance” (PLoS Biology, 2019).
Starred links: 1 amine or outer side, 2 acyl side, 3 side chain; linkers in the order of their positions; H or OH if unused. Non-standard residues stand in square brackets, D forms with d. Residues, ends and D or L forms follow the SMILES beside them. azaβ3(1Nal) = O=C(CN(Cc1cccc2ccccc12)N[*:1])[*:2]

Key:
[1] = tested on: zebrafish embryos; assay: Zebrafish embryo quantitative toxicity (size, curvature, cardiac frequency)
Description: Adult fish were kept in 30l aquariums at 27°C ± 2°C under constant light/dark (14:10 h) cycles. The day before the embryos were used, males and females were placed in breeding tanks. The fish were left undisturbed overnight, and the eggs were collected 1 h after the light was turned on the next morning. When the injections of the cyclic peptides started, embryos were transferred into microtiter plates placed at 28°C for 24 h. Peptides were prepared at 1, 10, 20, 40, and 100 mM concentrations in water, and injections were performed into the caudal vein. Each peptide was injected at 1 nl for all concentrations except 100 mM, when 2 nl was injected. Control embryos were injected with 1 nl of water. When the peptides were injected, analysis determined embryo sizes, curvatures, and cardiac frequencies. Peptide concentrations were checked in 10 embryos, and these were divided among 96-well plates and analyzed under a microscope or using a magnifying glass. […] To do this, each peptide was prepared in 0.9% NaCl and injected into the tail veins of 3 male Swiss mice at 1.5, 2.0, 2.5, or 5.0 mg.kg^−1, corresponding, respectively, to calculated blood concentrations of approximately 18.5, 24.5, 31, and 62.0 μM. […] Clinical signs were recorded daily, including any reduced motor activity, piloerection, and redness in the ear lobe, cyanosis, protruding eyeballs, slow or labored breathing, loss of response in the rear legs, convulsions, or death. Body weight was recorded at least once before the beginning of the treatment period and again on the day of treatment, with the satellite group checked once during the observation period. For the groups of mice observed for 7 d, food consumption was measured once during the study. […] Hematology investigations were performed before necropsy for all animals except the satellite ones, whose blood biochemistry parameters were determined before euthanasia. […]

[2] = tested on: S. aureus 33845; assay: microbe, parasite or virus in culture; details: 33845
Description: (10−4 M final concentrations). At selected time intervals, 100 μl of reaction mixture was collected, quenched by 200 μl 95% EtOH, and adjusted at pH 2 to prevent peptide adsorption to serum proteins. […] Supernatants were analyzed by RP-HPLC on an Xbridge C18 column with a linear gradient of water, 0.08% TFA, and acetonitrile with 1% TFA. HPLC peak areas were used to calculate the percentages of intact compound remaining at the various time points. MIC and MBC values were determined in triplicate in many ESKAPE clinical isolates, including a dozen MDR S. aureus, by the broth microdilution method. Peptidomimetics and antibiotics were assayed in a concentration range of 1 to 128 μM. The bacterial inoculum (5 × 10^5 colony-forming units [CFUs]/well) was prepared in MHB or CAMHB (150 μl). A Biotek Synergy 2 spectrophotometer was used to record the results after 18–20 h incubation at 35°C (±2°C). […] After every hour of culture for 4 h, serial dilutions were plated on BHI plates and incubated overnight at 37°C, and then the CFUs were counted and expressed as log CFU/ml. Phosphate-buffered saline (PBS)-exposed S. aureus MRSA was included as a control.
Supplementary file pbio.3000337.s007.docx: S1 Table Antibacterial activity of the 4 peptidomimetics focusing on 9 S. aureus MDR clinical isolates. Clinical isolates BCB/POE and 740404 DUN are from human sepsis. The other strains are from catheter infections or suppurating wounds. Brilacidin was used as a control. MDR, multidrug resistant. (DOCX) Click here for additional data file.

[3] = tested on: E. coli ML-35p; assay: Inner membrane permeability, ONPG cleavage; type: cell-based; details: concentration near MIC
Description: Outer and inner membrane permeability was determined on E. coli ML-35p, a lactose permease-deficient strain [8]. Permeation assays were carried out on 100 μl MHB from bacteria cultures grown to 0.15 OD600 (10^7 CFU/ml). Nitrocefin (20 μg/ml) was added to the tested molecules at a concentration near to their MICs, and cleavage was monitored by light absorption at 500 nm (outer membrane monitoring). Inner membrane monitoring of cleavage of ONPG (100 μg/ml) and substrate was monitored at 420 nm. Polymyxin B was a positive control, while a bacterial suspension in MHB was the negative control. Permeation assays were also performed on gram-positive S. aureus membranes (MSSA and MRSA) by fluorescence assay with SYTO Green nucleic acid stain (Life Technologies) in black flat-bottom 96-well microtiter plates (Greiner) in biological triplicate. Bacteria were grown to 0.3–0.4 OD600 in CAMHB at 37°C and centrifuged at 3,500 tr/min for 10 min. The pellet was washed and dissolved in PBS to an absorbance of 0.4 at 600 nm (approximately 2.10^8 CFU/ml). […] The amount of 50 μL of bacteria/SYTO Green mixture was added to each well containing compounds serially diluted in PBS, and fluorescence was measured at 37°C for up to 12 h using a spectrophotometer (BIOTEK, Tungsten-Halogen Lamp) with 485 nm excitation and 525 nm emission wavelengths.

SMILES | Cardiac frequency, Mean ([1]; 1 nl of 1 mM injected) [heart beat/10 sec] | Cardiac frequency, Mean ([1]; 1 nl of 10 mM injected) [heart beat/10 sec] | Cardiac frequency, Mean ([1]; 1 nl of 20 mM injected) [heart beat/10 sec] | MIC [2] [mg/L^-1] | Inner membrane permeation [3]
CC(C)[C@@H]1NC(=O)[C@H](CCCNC(=N)N)NC(=O)[C@H](CCCNC(=N)N)NC(=O)[C@H](Cc2c[nH]c3ccccc23)NC(=O)[C@H](Cc2ccccc2)NC(=O)[C@H](Cc2ccccc2)NC(=O)[C@H](CCCCN)NC1=O [Pep18] (cyclo(FFWRRVK)) | 29 | 29 | 22 | – | –
CC(C)[C@@H]1NC(=O)[C@H](CCCNC(=N)N)NC(=O)[C@H](CCCNC(=N)N)NC(=O)CN(Cc2cccc3ccccc23)NC(=O)[C@H](Cc2ccccc2)NC(=O)CN(Cc2cccc3ccccc23)NC(=O)[C@H](CCCCN)NC1=O [Pep19] (cyclo([azaβ3(1Nal)]F[azaβ3(1Nal)]RRVK)) | – | – | – | 16 | most active
